Experiment: xn = mol fraction of the nth substance listed

COC(=O)c1ccccc1 + CCCCCCCC
101 kPa
Conditions | viscosity [mPa·s]
298.15 K, x2 = 0.0356 | 1.698
298.15 K, x2 = 0.0736 | 1.572
298.15 K, x2 = 0.1081 | 1.474
298.15 K, x2 = 0.1549 | 1.349
298.15 K, x2 = 0.1926 | 1.265
298.15 K, x2 = 0.2388 | 1.169
298.15 K, x2 = 0.3669 | 0.961
298.15 K, x2 = 0.4093 | 0.905
298.15 K, x2 = 0.4513 | 0.855
298.15 K, x2 = 0.5041 | 0.796
298.15 K, x2 = 0.55 | 0.754
298.15 K, x2 = 0.6034 | 0.707
298.15 K, x2 = 0.6567 | 0.669
298.15 K, x2 = 0.7105 | 0.634
298.15 K, x2 = 0.7575 | 0.606
298.15 K, x2 = 0.8645 | 0.558
298.15 K, x2 = 0.9387 | 0.533
308.15 K, x2 = 0.0548 | 1.358
308.15 K, x2 = 0.0935 | 1.263
308.15 K, x2 = 0.1329 | 1.177
308.15 K, x2 = 0.1743 | 1.099
308.15 K, x2 = 0.216 | 1.026
308.15 K, x2 = 0.2531 | 0.967
308.15 K, x2 = 0.2946 | 0.909
308.15 K, x2 = 0.341 | 0.852
308.15 K, x2 = 0.3823 | 0.806
308.15 K, x2 = 0.4247 | 0.763
308.15 K, x2 = 0.4738 | 0.719
308.15 K, x2 = 0.5182 | 0.685
308.15 K, x2 = 0.5728 | 0.645
308.15 K, x2 = 0.6245 | 0.612
308.15 K, x2 = 0.6742 | 0.583
308.15 K, x2 = 0.7274 | 0.558
308.15 K, x2 = 0.774 | 0.536
308.15 K, x2 = 0.8351 | 0.512
308.15 K, x2 = 0.9135 | 0.486
318.15 K, x2 = 0.0668 | 1.147
318.15 K, x2 = 0.0719 | 1.139
318.15 K, x2 = 0.112 | 1.068
318.15 K, x2 = 0.1404 | 1.022
318.15 K, x2 = 0.1952 | 0.94
318.15 K, x2 = 0.2418 | 0.876
318.15 K, x2 = 0.2828 | 0.823
318.15 K, x2 = 0.3337 | 0.764
318.15 K, x2 = 0.3678 | 0.729
318.15 K, x2 = 0.4175 | 0.682
318.15 K, x2 = 0.463 | 0.644
318.15 K, x2 = 0.5158 | 0.605
318.15 K, x2 = 0.5624 | 0.576
318.15 K, x2 = 0.6149 | 0.548
318.15 K, x2 = 0.6664 | 0.525
318.15 K, x2 = 0.7241 | 0.502
318.15 K, x2 = 0.7767 | 0.485
318.15 K, x2 = 0.8373 | 0.468
318.15 K, x2 = 0.8921 | 0.453

c1ccc2c(c1)CCCC2 + CCCCCCCCC
viscosity [mPa·s], 101 kPa
Conditions | x2 = 0.1063 | x2 = 0.2018 | x2 = 0.3066 | x2 = 0.4057 | x2 = 0.5014 | x2 = 0.6005 | x2 = 0.704 | x2 = 0.7942 | x2 = 0.8898
293.15 K | 1.814 | 1.585 | 1.352 | 1.198 | 1.082 | 0.976 | 0.89 | 0.826 | 0.784
298.15 K | 1.653 | 1.45 | 1.254 | 1.111 | 1.006 | 0.908 | 0.833 | 0.775 | 0.735
303.15 K | 1.518 | 1.334 | 1.151 | 1.034 | 0.937 | 0.848 | 0.777 | 0.728 | 0.69
313.15 K | 1.308 | 1.148 | 0.997 | 0.905 | 0.821 | 0.749 | 0.69 | 0.649 | 0.615

CCOC(=O)CCl + Clc1ccccc1
viscosity [mPa·s], 101.3 kPa
Conditions | x1 = 0.1064 | x1 = 0.2055 | x1 = 0.3 | x1 = 0.3972 | x1 = 0.5005 | x1 = 0.5976 | x1 = 0.6985 | x1 = 0.7953 | x1 = 0.8963
298.15 K | 0.799 | 0.828 | 0.858 | 0.889 | 0.925 | 0.959 | 0.996 | 1.031 | 1.064
303.15 K | 0.752 | 0.778 | 0.804 | 0.834 | 0.865 | 0.895 | 0.927 | 0.959 | 0.986
308.15 K | 0.706 | 0.728 | 0.751 | 0.776 | 0.804 | 0.831 | 0.858 | 0.885 | 0.91

O=C(OCc1ccccc1)c1ccccc1 + CCOC(C)=O
298.15 K, 101 kPa
Conditions | viscosity [mPa·s]
x2 = 0.0784 | 7.003
x2 = 0.1426 | 5.938
x2 = 0.2347 | 4.711
x2 = 0.3002 | 3.881
x2 = 0.4001 | 3.047
x2 = 0.5 | 2.299
x2 = 0.5863 | 1.789
x2 = 0.6973 | 1.275
x2 = 0.799 | 0.9116
x2 = 0.898 | 0.6406

CCCCCCCCN(CCCCCCCC)CCCCCCCC + C1CCCCC1
303.15 K, 101 kPa
Conditions | viscosity [mPa·s]
x2 = 0.1179 | 6.488
x2 = 0.1582 | 6.33
x2 = 0.3086 | 5.344
x2 = 0.4099 | 4.83
x2 = 0.5029 | 4.33
x2 = 0.6074 | 3.468
x2 = 0.7022 | 2.757
x2 = 0.8023 | 2.054
x2 = 0.902 | 1.416

CCOC(=O)CCl + CCCCCCCC
viscosity [mPa·s], 101.33 kPa
Conditions | x1 = 0.1027 | x1 = 0.2003 | x1 = 0.3048 | x1 = 0.4033 | x1 = 0.5064 | x1 = 0.6021 | x1 = 0.7042 | x1 = 0.8031 | x1 = 0.9017
298.15 K | 0.524 | 0.553 | 0.586 | 0.618 | 0.666 | 0.718 | 0.782 | 0.855 | 0.953
303.15 K | 0.493 | 0.518 | 0.551 | 0.577 | 0.621 | 0.669 | 0.723 | 0.796 | 0.884
308.15 K | 0.465 | 0.487 | 0.519 | 0.541 | 0.584 | 0.624 | 0.676 | 0.741 | 0.82

C[N+]1(CC2CO2)CCCC1=O.[Cl-] (configuration not stated) + CC(=O)O
viscosity [mPa·s], 101 kPa
Conditions | 293.15 K | 298.15 K | 303.15 K | 308.15 K | 313.15 K
x1 = 0.0373 | 1.592 | 1.448 | 1.322 | 1.213 | 1.115
x1 = 0.0644 | 1.83 | 1.652 | 1.5 | 1.371 | 1.256
x1 = 0.1087 | 2.234 | 2 | 1.802 | 1.632 | 1.489
x1 = 0.2041 | 2.728 | 2.425 | 2.172 | 1.959 | 1.776
x1 = 0.3022 | 2.803 | 2.492 | 2.235 | 2.018 | 1.831
x1 = 0.4053 | 2.587 | 2.314 | 2.087 | 1.892 | 1.723
x1 = 0.5054 | 2.324 | 2.095 | 1.9 | 1.731 | 1.586
x1 = 0.605 | 2.107 | 1.908 | 1.738 | 1.591 | 1.465
x1 = 0.7073 | 1.919 | 1.746 | 1.597 | 1.469 | 1.356
x1 = 0.8065 | 1.817 | 1.657 | 1.521 | 1.402 | 1.297
x1 = 0.9047 | 1.752 | 1.602 | 1.473 | 1.36 | 1.261

CC(C)OCCO + CN(C)C=O
298.15 K, 101 kPa
Conditions | viscosity [mPa·s]
x1 = 0.0025 | 0.815
x1 = 0.0124 | 0.827
x1 = 0.0296 | 0.854
x1 = 0.048 | 0.885
x1 = 0.0898 | 0.932
x1 = 0.1476 | 1.006
x1 = 0.1908 | 1.066
x1 = 0.2558 | 1.142
x1 = 0.3145 | 1.213
x1 = 0.344 | 1.247
x1 = 0.3645 | 1.274
x1 = 0.4159 | 1.34
x1 = 0.4723 | 1.42
x1 = 0.52 | 1.491
x1 = 0.562 | 1.543
x1 = 0.6131 | 1.617
x1 = 0.6641 | 1.697
x1 = 0.7547 | 1.818
x1 = 0.7959 | 1.874
x1 = 0.8833 | 2.005
x1 = 0.9392 | 2.069
x1 = 0.9642 | 2.093
x2 = 0.0058 | 2.104

— the CheMixHub viscosity set
